Source: publication PMC12808100, “The non-catalytic DNA polymerase ε subunit is an NPF motif recognition protein” (Nature Communications, 2025)
Residues, ends and D or L forms follow the SMILES beside them.

Key:
[1] = biological target: AURKA (Homo sapiens, UniProt O14965); test: nHU-MS peptide bait, prey AURKA
[2] = biological target: SSBP2 (Homo sapiens, UniProt P81877+Q86U70); test: nHU-MS peptide bait, prey SSBP2
[3] = biological target: SSBP4 (Homo sapiens, UniProt Q86U70+Q9BWG4); test: nHU-MS peptide bait, prey SSBP4
[4] = biological target: T1, EHD1 (Homo sapiens, UniProt Q9H4M9); test: nHU-MS peptide bait, prey EHD1; details: for BI: prey EHD1, MS7_Varjosalo
T1 sequence (Q9H4M9 1-534): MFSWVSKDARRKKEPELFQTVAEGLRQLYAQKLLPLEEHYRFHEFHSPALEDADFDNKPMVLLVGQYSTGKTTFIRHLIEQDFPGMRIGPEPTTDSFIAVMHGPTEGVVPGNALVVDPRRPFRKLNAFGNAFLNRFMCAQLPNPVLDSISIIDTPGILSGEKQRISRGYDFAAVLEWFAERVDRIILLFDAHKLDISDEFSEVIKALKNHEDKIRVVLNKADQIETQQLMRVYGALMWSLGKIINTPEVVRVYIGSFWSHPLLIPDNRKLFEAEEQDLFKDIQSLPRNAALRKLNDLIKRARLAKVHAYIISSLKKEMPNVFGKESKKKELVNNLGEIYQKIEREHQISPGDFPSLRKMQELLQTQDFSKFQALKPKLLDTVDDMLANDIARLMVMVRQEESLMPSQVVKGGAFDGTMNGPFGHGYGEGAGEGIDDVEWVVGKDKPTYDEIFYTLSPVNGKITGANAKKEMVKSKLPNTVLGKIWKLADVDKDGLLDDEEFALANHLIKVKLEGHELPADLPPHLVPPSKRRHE

[5] = biological target: HSPA5 (Homo sapiens, UniProt P11021); test: nHU-MS peptide bait, prey HSPA5
[6] = biological target: T2, PPP2R2A (Homo sapiens, UniProt P63151); test: nHU-MS peptide bait, prey PPP2R2A; details: for Kd: pKapp
T2 sequence (P63151 1-447): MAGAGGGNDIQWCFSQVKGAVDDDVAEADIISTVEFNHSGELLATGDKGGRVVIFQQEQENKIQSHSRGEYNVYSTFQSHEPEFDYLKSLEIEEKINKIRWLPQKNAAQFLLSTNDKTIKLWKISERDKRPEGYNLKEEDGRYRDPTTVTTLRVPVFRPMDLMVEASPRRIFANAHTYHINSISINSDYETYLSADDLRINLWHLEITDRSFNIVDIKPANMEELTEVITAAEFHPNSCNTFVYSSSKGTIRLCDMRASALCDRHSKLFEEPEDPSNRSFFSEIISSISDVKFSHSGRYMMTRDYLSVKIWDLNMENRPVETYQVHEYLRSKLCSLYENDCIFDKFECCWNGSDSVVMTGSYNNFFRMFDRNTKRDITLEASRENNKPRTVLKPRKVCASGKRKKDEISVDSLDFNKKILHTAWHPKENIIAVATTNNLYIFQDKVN

[7] = biological target: PLEK (Homo sapiens, UniProt P08567); test: nHU-MS peptide bait, prey PLEK
[8] = biological target: CCDC174 (Homo sapiens, UniProt Q6PII3); test: nHU-MS peptide bait, prey CCDC174
CCDC174, sequence (Q6PII3 whole entry): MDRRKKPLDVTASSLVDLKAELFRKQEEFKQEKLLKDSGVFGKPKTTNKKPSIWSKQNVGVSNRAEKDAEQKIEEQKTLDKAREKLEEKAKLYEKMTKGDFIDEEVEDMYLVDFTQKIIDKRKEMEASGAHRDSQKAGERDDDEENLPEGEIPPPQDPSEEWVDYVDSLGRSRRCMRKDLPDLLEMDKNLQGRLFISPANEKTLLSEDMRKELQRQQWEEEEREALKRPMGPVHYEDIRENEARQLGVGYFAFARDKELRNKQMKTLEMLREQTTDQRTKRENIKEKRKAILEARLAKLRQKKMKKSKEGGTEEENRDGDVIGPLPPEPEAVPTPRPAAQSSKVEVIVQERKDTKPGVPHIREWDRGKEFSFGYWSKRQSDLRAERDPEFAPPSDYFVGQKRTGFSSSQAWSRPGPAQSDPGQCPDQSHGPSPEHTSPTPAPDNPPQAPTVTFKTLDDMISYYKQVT

SSBP4, sequence (Q9BWG4 whole entry): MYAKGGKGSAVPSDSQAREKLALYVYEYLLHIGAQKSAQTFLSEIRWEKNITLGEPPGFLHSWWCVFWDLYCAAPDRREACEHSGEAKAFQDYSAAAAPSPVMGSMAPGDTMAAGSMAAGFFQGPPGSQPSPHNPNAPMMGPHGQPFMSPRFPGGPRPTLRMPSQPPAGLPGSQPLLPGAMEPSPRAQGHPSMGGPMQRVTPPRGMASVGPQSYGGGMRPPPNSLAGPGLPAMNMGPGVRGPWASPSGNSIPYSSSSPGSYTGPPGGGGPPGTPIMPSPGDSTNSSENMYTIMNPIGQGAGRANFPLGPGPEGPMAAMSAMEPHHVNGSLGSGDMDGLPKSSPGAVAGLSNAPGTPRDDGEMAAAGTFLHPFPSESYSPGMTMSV
SSBP4, sequence (Q86U70 whole entry): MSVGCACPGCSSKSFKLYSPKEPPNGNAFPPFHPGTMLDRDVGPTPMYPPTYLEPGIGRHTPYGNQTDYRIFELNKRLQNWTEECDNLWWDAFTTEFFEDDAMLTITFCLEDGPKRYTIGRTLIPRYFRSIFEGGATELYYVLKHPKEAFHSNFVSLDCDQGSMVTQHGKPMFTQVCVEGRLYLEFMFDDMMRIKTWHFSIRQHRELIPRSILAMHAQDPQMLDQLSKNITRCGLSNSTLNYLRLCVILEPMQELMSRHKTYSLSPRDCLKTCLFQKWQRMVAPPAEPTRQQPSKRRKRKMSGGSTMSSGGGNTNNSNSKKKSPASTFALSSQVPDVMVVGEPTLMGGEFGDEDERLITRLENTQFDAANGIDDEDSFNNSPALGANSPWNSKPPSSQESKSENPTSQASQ
SSBP2, sequence (P81877 whole entry): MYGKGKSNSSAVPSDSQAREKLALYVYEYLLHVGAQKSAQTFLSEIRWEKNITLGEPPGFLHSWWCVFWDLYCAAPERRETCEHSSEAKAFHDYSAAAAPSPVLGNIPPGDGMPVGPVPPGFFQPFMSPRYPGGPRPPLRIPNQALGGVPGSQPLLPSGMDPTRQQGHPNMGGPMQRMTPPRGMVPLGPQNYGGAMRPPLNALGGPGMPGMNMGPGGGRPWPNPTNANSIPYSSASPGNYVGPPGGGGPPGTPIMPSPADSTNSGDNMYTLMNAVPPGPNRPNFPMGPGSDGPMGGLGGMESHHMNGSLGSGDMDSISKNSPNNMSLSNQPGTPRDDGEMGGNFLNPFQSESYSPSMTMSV
SSBP2, sequence (Q86U70 whole entry): as the sequence (Q86U70 whole entry) above
PLEK, sequence (P08567 whole entry): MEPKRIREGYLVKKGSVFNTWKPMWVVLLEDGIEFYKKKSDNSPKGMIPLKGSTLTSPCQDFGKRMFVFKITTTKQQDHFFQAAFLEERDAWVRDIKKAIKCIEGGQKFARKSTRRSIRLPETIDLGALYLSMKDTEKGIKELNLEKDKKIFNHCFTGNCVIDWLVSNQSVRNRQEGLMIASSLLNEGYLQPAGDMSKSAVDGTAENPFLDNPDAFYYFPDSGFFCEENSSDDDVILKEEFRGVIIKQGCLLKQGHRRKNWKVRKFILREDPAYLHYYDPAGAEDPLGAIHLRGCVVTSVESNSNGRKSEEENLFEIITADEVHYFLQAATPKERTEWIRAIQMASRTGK
HSPA5, sequence (P11021 19-654): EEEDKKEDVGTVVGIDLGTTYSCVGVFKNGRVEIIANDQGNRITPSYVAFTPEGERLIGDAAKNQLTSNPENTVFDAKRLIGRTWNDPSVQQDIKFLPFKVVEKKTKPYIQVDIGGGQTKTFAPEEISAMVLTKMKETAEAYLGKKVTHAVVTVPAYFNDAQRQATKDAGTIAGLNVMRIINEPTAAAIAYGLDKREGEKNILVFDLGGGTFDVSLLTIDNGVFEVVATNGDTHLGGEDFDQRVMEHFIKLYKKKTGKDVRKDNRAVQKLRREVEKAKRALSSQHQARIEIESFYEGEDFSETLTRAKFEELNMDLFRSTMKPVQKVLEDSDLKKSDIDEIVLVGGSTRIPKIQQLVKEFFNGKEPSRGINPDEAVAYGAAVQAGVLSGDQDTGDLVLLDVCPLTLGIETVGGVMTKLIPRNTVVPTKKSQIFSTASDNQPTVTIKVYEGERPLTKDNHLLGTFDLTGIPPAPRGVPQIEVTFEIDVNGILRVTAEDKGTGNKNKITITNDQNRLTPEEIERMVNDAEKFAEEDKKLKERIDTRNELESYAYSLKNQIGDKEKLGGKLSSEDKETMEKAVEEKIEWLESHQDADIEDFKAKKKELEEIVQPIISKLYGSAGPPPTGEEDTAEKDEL
AURKA, sequence (O14965 whole entry): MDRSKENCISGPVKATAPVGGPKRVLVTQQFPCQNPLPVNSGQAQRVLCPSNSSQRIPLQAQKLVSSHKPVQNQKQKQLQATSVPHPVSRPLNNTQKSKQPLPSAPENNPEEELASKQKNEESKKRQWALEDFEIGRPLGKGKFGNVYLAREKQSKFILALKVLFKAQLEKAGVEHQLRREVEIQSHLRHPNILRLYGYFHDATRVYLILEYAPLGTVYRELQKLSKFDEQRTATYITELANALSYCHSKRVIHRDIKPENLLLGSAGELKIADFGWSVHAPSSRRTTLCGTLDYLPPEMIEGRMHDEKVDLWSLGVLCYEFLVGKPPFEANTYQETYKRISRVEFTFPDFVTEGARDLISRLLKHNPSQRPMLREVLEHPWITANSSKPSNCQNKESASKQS

Kd [1] [µM] | BI ([1]; prey AURKA, MS8_Varjosalo) | Kd [2] [µM] | BI ([2]; prey SSBP2, MS8_Varjosalo) | Kd [3] [µM] | BI ([3]; prey SSBP4, MS8_Varjosalo) | Kd [4] [µM] | BI [4] | Kd [5] [µM] | BI ([5]; prey HSPA5, MS5_Varjosalo) | BI ([6]; MS5_Varjosalo) | BI ([6]; MS7_Varjosalo) | Kd ([6]; MS5_Varjosalo) [µM] | Kd ([6]; MS7_Varjosalo) [µM] | Kd [7] [µM] | BI ([7]; prey PLEK, MS7_Varjosalo) | Kd [8] [µM] | BI ([8]; prey CCDC174, MS7_Varjosalo) | Structure (SMILES)
28.6 | 0.2591 | 18.9 | 0.3462 | 12.2 | 0.451 |  |  |  |  |  |  |  |  |  |  |  |  | CSCC[C@H](NC(=O)[C@@H]1CCCN1C(=O)[C@@H](NC(=O)[C@@H]1CCCN1C(=O)[C@@H]1CCCN1C(=O)[C@@H]1CCCN1C(=O)[C@H](C)NC(=O)[C@H](Cc1ccccc1)NC(=O)[C@H](CCC(=O)O)NC(=O)[C@@H](NC(=O)[C@H](CC(C)C)NC(=O)[C@@H](N)Cc1c[nH]cn1)[C@@H](C)O)[C@@H](C)O)C(=O)N[C@H](C(=O)N[C@@H](CC(=O)O)C(=O)N[C@@H](Cc1c[nH]cn1)C(=O)N[C@@H](CC(C)C)C(=O)N[C@H](C(=O)N[C@@H](C)C(=O)N[C@@H](CO)C(=O)N[C@@H](CC(N)=O)C(=O)N1CCC[C@H]1C(=O)N[C@@H](Cc1ccccc1)C(=O)N[C@@H](CCC(=O)O)C(=O)N[C@@H](CC(=O)O)C(=O)N[C@@H](CC(=O)O)C(=O)N[C@@H](Cc1ccccc1)C(=O)NCC(=O)N[C@@H](C)C(=O)N1CCC[C@H]1C(=O)N[C@@H](CCCCN)C(N)=O)C(C)C)C(C)C [PYGO2 57-86]
 |  |  |  |  |  | 24.3 | 0.2916 | 19.9 | 0.3347 | 0.2309 | 0.2507 | 33.3 | 29.9 |  |  |  |  | CC[C@H](C)[C@H](NC(=O)[C@H](Cc1ccccc1)NC(=O)[C@@H]1CCCN1C(=O)[C@H](CC(N)=O)NC(=O)[C@@H]1CCCN1C(=O)[C@H](CO)NC(=O)[C@H](CO)NC(=O)[C@@H](N)CCCNC(=N)N)C(=O)N[C@H](C(=O)NCC(=O)N[C@@H](CC(C)C)C(=O)N[C@H](C(=O)N[C@@H](CCCNC(=N)N)C(=O)N[C@H](C(=O)N[C@@H](CC(N)=O)C(=O)N1CCC[C@H]1C(=O)N[C@@H](Cc1ccccc1)C(=O)N[C@@H](CO)C(=O)N[C@@H](CC(=O)O)C(=O)N[C@@H](CCCNC(=N)N)C(=O)N[C@H](C(=O)N[C@@H](C)C(=O)N[C@@H](C)C(=O)N1CCC[C@H]1C(=O)NCC(=O)N[C@@H](CC(N)=O)C(=O)N1CCC[C@H]1C(=O)N[C@@H](Cc1ccccc1)C(=O)N[C@@H](CCCNC(=N)N)C(=O)N[C@@H](C)C(=O)N[C@@H](CCCCN)C(=O)N[C@@H](CO)C(N)=O)[C@@H](C)O)[C@@H](C)O)[C@@H](C)O)[C@@H](C)O [SYNJ1_1390-1421] (H-RSSPNPFITGLTRTNPFSDRTAAPGNPFRAKS-NH2)
 |  |  |  |  |  | 39.4 | 0.2025 |  |  |  |  |  |  | 9.44 | 0.5145 | 10.9 | 0.4787 | CC[C@H](C)[C@H](NC(=O)[C@@H](N)CCCNC(=N)N)C(=O)N1CCC[C@H]1C(=O)N[C@H](C(=O)N[C@@H](CC(C)C)C(=O)N[C@@H](CC(N)=O)C(=O)N1CCC[C@H]1C(=O)N[C@@H](Cc1ccccc1)C(=O)N[C@@H](CCC(=O)O)C(=O)N[C@@H](CO)C(=O)N1CCC[C@H]1C(=O)N[C@@H](CO)C(=O)N[C@@H](CC(=O)O)C(=O)N[C@@H](Cc1ccc(O)cc1)C(=O)N[C@@H](CO)C(=O)N[C@@H](CC(N)=O)C(=O)N[C@@H](CC(C)C)C(=O)N[C@@H](Cc1c[nH]cn1)C(=O)N[C@@H](CCC(=O)O)C(=O)N[C@@H](CCC(N)=O)C(=O)N[C@H](C(N)=O)[C@@H](C)O)C(C)C [BORA] (H-RIPVLNPFESPSDYSNLHEQT-NH2)
